# “And” between values parts separate entries of the source, which are not always exact repeats. Equal values may be shown once. Inconclusive results and toxic doses are left out. Non-standard residues stand in square brackets, D forms with d. Residues, ends and D or L forms follow the SMILES beside them. ξ: configuration not given here. ξF = NC(Cc1ccccc1)C(=O)O
# Tested on: BDF1 mice, P388 leukemia ip, median survival T/C
# Test: NCI In Vivo Anticancer Drug Screen. Data for tumor model P388 Leukemia (intraperitoneal) in B6D2F1 (BDF1) mice
# Details: endpoint: median survival time, higher = longer survival
# Summary of the method: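 T/C = treated-group survival ÷ vehicle-control survival; tumour transplanted into mice before dosing.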
# [1] = dose: 75.0 mg/kg/injection, schedule: Q04DX003 (ip), vehicle: saline with Tween-80
# [2] = dose: 100.0 mg/kg/injection, schedule: Q01DX009 (ip), vehicle: saline with Tween-80
# [3] = dose: 150.0 mg/kg/injection, schedule: Q01DX009 (ip), vehicle: saline with Tween-80
# [4] = dose: 100.0 mg/kg/injection, schedule: Q04DX003 (ip), vehicle: saline with Tween-80
# [5] = dose: 200.0 mg/kg/injection, schedule: Q04DX003 (ip), vehicle: saline with Tween-80
# [6] = dose: 400.0 mg/kg/injection, schedule: Q04DX003 (ip), vehicle: saline with Tween-80
# [7] = dose: 200.0 mg/kg/injection, schedule: Q01DX009 (ip), vehicle: saline with Tween-80
# [8] = dose: 50.0 mg/kg/injection, schedule: Q01DX009 (ip), vehicle: saline with Tween-80
smiles,measurement,setting,value
O=c1[nH]c(Cl)ncc1F,T/C,"dose: 67.0 mg/kg/injection, schedule: Q01DX009 (ip), vehicle: saline with Tween-80",100 % of control
same,T/C,[1],113 % of control
same,T/C,[2],103 % of control
same,T/C,[3],107 % of control
same,T/C,"dose: 150.0 mg/kg/injection, schedule: Q04DX003 (ip), vehicle: saline with Tween-80",100 % of control
same,T/C,"dose: 225.0 mg/kg/injection, schedule: Q01DX009 (ip), vehicle: saline with Tween-80",111 % of control
same,T/C,"dose: 300.0 mg/kg/injection, schedule: Q04DX003 (ip), vehicle: saline with Tween-80",86 % of control
NC(Cc1ccccc1)C(=O)NCC(=O)NCC(=O)O (stereo not drawn) (H-[ξF]-Gly-Gly-OH),T/C,[4],95 % of control
same,T/C,[5],104 % of control
same,T/C,[6],109 % of control
O=NN(CCCl)C(=O)N[C@H]1CCCC[C@H]1Cl,T/C,"dose: 1.0 mg/kg/injection, schedule: Q01DX009 (ip), vehicle: Klucel (hydroxypropylcellulose) (HPC)",104 % of control
same,T/C,"dose: 1.0 mg/kg/injection, schedule: Q04DX003 (ip), vehicle: Klucel (hydroxypropylcellulose) (HPC)",104 % of control
same,T/C,"dose: 1.5 mg/kg/injection, schedule: Q01DX009 (ip), vehicle: Klucel (hydroxypropylcellulose) (HPC)",116 % of control
same,T/C,"dose: 2.0 mg/kg/injection, schedule: Q04DX003 (ip), vehicle: Klucel (hydroxypropylcellulose) (HPC)",104 % of control
same,T/C,"dose: 2.3 mg/kg/injection, schedule: Q01DX009 (ip), vehicle: Klucel (hydroxypropylcellulose) (HPC)",104 % of control
same,T/C,"dose: 4.0 mg/kg/injection, schedule: Q04DX003 (ip), vehicle: Klucel (hydroxypropylcellulose) (HPC)",100 % of control
same,T/C,"dose: 5.5 mg/kg/injection, schedule: Q01DX009 (ip), vehicle: Klucel (hydroxypropylcellulose) (HPC)",153 % of control and 194 % of control
same,T/C,"dose: 8.5 mg/kg/injection, schedule: Q01DX009 (ip), vehicle: Klucel (hydroxypropylcellulose) (HPC)",159 % of control and 169 % of control and 216 % of control
same,T/C,"dose: 8.5 mg/kg/injection, schedule: Q04DX003 (ip), vehicle: Klucel (hydroxypropylcellulose) (HPC)",165 % of control
same,T/C,"dose: 13.0 mg/kg/injection, schedule: Q01DX009 (ip), vehicle: Klucel (hydroxypropylcellulose) (HPC)",305 % of control and 192 % of control
same,T/C,"dose: 13.0 mg/kg/injection, schedule: Q04DX003 (ip), vehicle: Klucel (hydroxypropylcellulose) (HPC)",235 % of control
same,T/C,"dose: 20.0 mg/kg/injection, schedule: Q01DX009 (ip), vehicle: Klucel (hydroxypropylcellulose) (HPC)",250 % of control and 333 % of control and 200 % of control
same,T/C,"dose: 20.0 mg/kg/injection, schedule: Q04DX003 (ip), vehicle: Klucel (hydroxypropylcellulose) (HPC)",270 % of control and 300 % of control
same,T/C,"dose: 30.0 mg/kg/injection, schedule: Q01DX009 (ip), vehicle: Klucel (hydroxypropylcellulose) (HPC)",120 % of control
same,T/C,"dose: 30.0 mg/kg/injection, schedule: Q04DX003 (ip), vehicle: Klucel (hydroxypropylcellulose) (HPC)",300 % of control
same,T/C,"dose: 44.0 mg/kg/injection, schedule: Q01DX009 (ip), vehicle: Klucel (hydroxypropylcellulose) (HPC)",104 % of control
same,T/C,"dose: 44.0 mg/kg/injection, schedule: Q04DX003 (ip), vehicle: Klucel (hydroxypropylcellulose) (HPC)",300 % of control
same,T/C,"dose: 67.0 mg/kg/injection, schedule: Q04DX003 (ip), vehicle: Klucel (hydroxypropylcellulose) (HPC)",300 % of control
CN1C(=O)N(C)C2(C=Cc3cc([N+](=O)[O-])ccc3O2)N(C)C1=O,T/C,"dose: 50.0 mg/kg/injection, schedule: Q01DX009 (ip), vehicle: saline",99 % of control
same,T/C,"dose: 100.0 mg/kg/injection, schedule: Q01DX009 (ip), vehicle: saline",101 % of control
same,T/C,"dose: 200.0 mg/kg/injection, schedule: Q01DX009 (ip), vehicle: saline",99 % of control
C[CH2][Sn]([CH2]C)([O]S(=O)(=O)CC12CCC(CC1=O)C2(C)C)[O]S(=O)(=O)CC12CCC(CC1=O)C2(C)C,T/C,"dose: 12.5 mg/kg/injection, schedule: Q01DX009 (ip), vehicle: saline",173 % of control
same,T/C,"dose: 25.0 mg/kg/injection, schedule: Q01DX009 (ip), vehicle: saline",195 % of control
CN(C)c1ncnc2nsnc12,T/C,[1],95 % of control
CC1OC(OC2C(=O)c3c(O)cc(O)cc3OC2c2ccc(O)c(O)c2)C(O)C(O)C1O (stereo not drawn),T/C,"dose: 25.0 mg/kg/injection, schedule: Q01DX009 (ip), vehicle: alcohol",100 % of control
same,T/C,"dose: 50.0 mg/kg/injection, schedule: Q01DX009 (ip), vehicle: alcohol",96 % of control
same,T/C,"dose: 100.0 mg/kg/injection, schedule: Q01DX009 (ip), vehicle: alcohol",92 % of control
same,T/C,"dose: 200.0 mg/kg/injection, schedule: Q01DX009 (ip), vehicle: alcohol",106 % of control
same,T/C,[7],115 % of control
same,T/C,"dose: 300.0 mg/kg/injection, schedule: Q01DX009 (ip), vehicle: saline with Tween-80",90 % of control
same,T/C,"dose: 455.0 mg/kg/injection, schedule: Q01DX009 (ip), vehicle: saline with Tween-80",99 % of control
COc1ccc(/C(=C\S(C)=O)c2cccs2)cc1 (stereo not drawn),T/C,[8],105 % of control
same,T/C,[2],107 % of control
same,T/C,[7],100 % of control
CC1=C(/C=C/C(C)=C/C=C/C(C)=C/CO)C(C)(C)CCC1,T/C,[8],92 % of control
same,T/C,[2],96 % of control
same,T/C,[7],96 % of control
CC(=O)OCC(=O)[C@@]1(O)CC[C@H]2[C@@H]3C[C@H](C)C4=CC(=O)C=C[C@]4(C)[C@H]3[C@@H](O)C[C@@]21C,T/C,[4],104 % of control
same,T/C,[5],104 % of control
same,T/C,[6],100 % of control
C(=N\n1cnnc1)/c1ccc(/C=N/n2cnnc2)cc1,T/C,"dose: 100.0 mg/kg/injection, schedule: Q01DX001 (ip), vehicle: saline",118 % of control
same,T/C,"dose: 200.0 mg/kg/injection, schedule: Q01DX001 (ip), vehicle: saline",104 % of control
same,T/C,"dose: 400.0 mg/kg/injection, schedule: Q01DX001 (ip), vehicle: saline",95 % of control
COC(CNC(=O)Nc1cccnc1)[CH2][Hg][Cl] (stereo not drawn),T/C,"dose: 12.5 mg/kg/injection, schedule: Q01DX009 (ip), vehicle: saline with Tween-80",90 % of control
same,T/C,"dose: 25.0 mg/kg/injection, schedule: Q01DX009 (ip), vehicle: saline with Tween-80",104 % of control
same,T/C,[8],100 % of control
CCOC(=O)C(Br)C(Br)C(=O)OCC (stereo not drawn),T/C,[8],89 % of control
same,T/C,[2],104 % of control
O=S(=O)(Nc1cc(Cl)c(NS(=O)(=O)c2ccccc2)cc1Cl)c1ccccc1,T/C,"dose: 100.0 mg/kg/injection, schedule: Q01DX001 (ip), vehicle: saline with Tween-80",95 % of control
same,T/C,"dose: 200.0 mg/kg/injection, schedule: Q01DX001 (ip), vehicle: saline with Tween-80",90 % of control
same,T/C,"dose: 400.0 mg/kg/injection, schedule: Q01DX001 (ip), vehicle: saline with Tween-80",86 % of control
CC(=O)Oc1ccc(/C=N/NC(N)=S)nc1,T/C,"dose: 0.18 mg/kg/injection, schedule: Q01DX009 (ip), vehicle: saline with Tween-80",123 % of control
same,T/C,"dose: 0.27 mg/kg/injection, schedule: Q01DX009 (ip), vehicle: saline with Tween-80",116 % of control
same,T/C,"dose: 0.4 mg/kg/injection, schedule: Q01DX009 (ip), vehicle: saline with Tween-80",176 % of control
same,T/C,"dose: 0.6 mg/kg/injection, schedule: Q01DX009 (ip), vehicle: saline with Tween-80",123 % of control
same,T/C,"dose: 44.0 mg/kg/injection, schedule: Q01DX009 (ip), vehicle: saline with Tween-80",177 % of control
same,T/C,"dose: 66.0 mg/kg/injection, schedule: Q01DX009 (ip), vehicle: saline with Tween-80",200 % of control
same,T/C,[2],177 % of control and 220 % of control
same,T/C,[4],107 % of control
same,T/C,[3],90 % of control
same,T/C,[7],105 % of control
same,T/C,[5],111 % of control
same,T/C,[6],115 % of control
COC1(C)CCC(C=O)C(C#N)(C#N)C1(C#N)C#N (stereo not drawn),T/C,"dose: 12.5 mg/kg/injection, schedule: Q01DX001 (ip), vehicle: saline with Tween-80",98 % of control
same,T/C,"dose: 25.0 mg/kg/injection, schedule: Q01DX001 (ip), vehicle: saline with Tween-80",100 % of control
same,T/C,"dose: 50.0 mg/kg/injection, schedule: Q01DX001 (ip), vehicle: saline with Tween-80",104 % of control
O=C(CCCCC(=O)N/N=C\c1ccccn1)N/N=C\c1ccccn1,T/C,"dose: 100.0 mg/kg/injection, schedule: Q04DX003 (ip), vehicle: saline",104 % of control
same,T/C,"dose: 200.0 mg/kg/injection, schedule: Q04DX003 (ip), vehicle: saline",100 % of control
same,T/C,"dose: 400.0 mg/kg/injection, schedule: Q04DX003 (ip), vehicle: saline",109 % of control
CC1Cc2c(Cl)cc(C(=O)NC(Cc3ccccc3)C(=O)O)c(O)c2C(=O)O1 (stereo not drawn),T/C,"dose: 0.25 mg/kg/injection, schedule: Q01DX009 (ip), vehicle: saline",98 % of control
same,T/C,"dose: 0.5 mg/kg/injection, schedule: Q01DX009 (ip), vehicle: saline",116 % of control
same,T/C,"dose: 1.0 mg/kg/injection, schedule: Q01DX009 (ip), vehicle: saline",115 % of control
CCP(=Nc1cc(C(c2ccccc2)(c2ccccc2)c2ccccc2)cc(C(C)(C)C)c1O)(c1ccccc1)c1ccccc1,T/C,[8],107 % of control
same,T/C,[2],116 % of control
same,T/C,[7],89 % of control
O=S1(=O)C(C(O)(c2ccccc2)c2ccccc2)CCCN1c1ccccc1 (stereo not drawn),T/C,[8],100 % of control
same,T/C,[2],91 % of control
same,T/C,[7],97 % of control

# Reference: PubChem BioAssay AID328 (DTP/NCI, 2004)
